Test results reported in patent US12606540B2, “Triazolone compound” (MEDSHINE DISCOVERY INC., priority 2020, dated 2026).
Where two headings read alike, the source gives them in different places.

How the values were obtained:
[1] = Pharmacokinetic evaluation in mice (IV and PO); format: in vivo, female Balb/c mice; details: for MRT last: read-out: MRT0-last
Protocol: Experiment process: 0.04 mg/mL of a clarified solution of the test compound in 5% DMSO/10% Solutol solution/85% water was injected into female Balb/c mice (overnight fasting, 7-9 weeks of age) via tail vein, with dosage of 0.2 mg/kg. 0.1 mg/mL of the test compound in 5% DMSO/10% Solutol solution/0.2% Tween80/84.8% water was administered by gavage to female Balb/c mice (overnight fasting, 7-9 weeks of age), with dosage of 1 mg/kg. About 30 μL of blood was collected from the jugular vein at 0.0833, 0.25, 0.5, 1.0, 2.0, 4.0, 8.0, 10 and 24 h and from the tail vein at 0.25, 0.5, 1.0, 2.0, 4.0, 8.0 and 24 h after administration for both groups of animals, and were placed in anticoagulation tubes with EDTA-K2, and the blood was separated by centrifugation to obtain plasma. Plasma concentrations were detected by LC-MS/MS, and relevant pharmacokinetic parameters were calculated using WinNonlin™ Version 6.3 (Pharsight, Mountain View, CA) pharmacokinetic software with a non-compartmental model linear logarithmic trapezoid method.

[2] = biological target: DHODH enzyme (Homo sapiens, UniProt Q02127); assay: DHODH enzyme inhibitory activity in vitro (resazurin fluorescence); format: biochemical; details: 5 nM DHODH, 15 μM L-DHO, 80 μM Resazurin
Description: The DHODH inhibitory activity of the compounds was detected by the following experimental method, and the experimental results are as shown in Table 1.
DHODH uses flavin mononucleotide FMN to catalyze the oxidation of dihydrooratic acid DHO to produce oratic acid, while the re-oxidation of FMN requires the participation of coenzyme CoQ. In the experiment of detecting the DHODH enzyme activity, CoQ was replaced by Resazurin dye as the final electron acceptor in the enzyme activity reaction. Resazurin solution is blue, and the resorufin generated after reduction has red fluorescence, and the fluorescence signal can be detected under the 535 nm of excitation wavelength and the 590 nm of emission wavelength. The components of the reaction buffer used in the experiment were 100 mM Hepes pH 7.0, 150 mM NaCl, 0.3% CHAPS, 0.5 mg/mL BSA, 0.1 μM FMN and 1% DMSO. The final concentration of DHODH enzyme in the reaction system was 5 nM, and the final concentration of substrate L-DHO was 15 μM, the final concentration of indicator Resazurin was 80 μM. The components of the reaction stop buffer were 100 mM Hepes pH 7.0 and 5 mM Orotate. The specific method was as follows: 2-fold final concentration of the DHODH enzyme solution was mixed with the compound, incubated at room temperature for 20 min, 2-fold final concentration of the substrate mixture solution of L-DHO and resazurin was added and reacted, incubated at room temperature away from light for 45 min. Then the reaction was stopped by adding 2-fold final concentration of the reaction stop buffer to the reaction system, and incubated at room temperature for 10 min, the fluorescence signal of the reaction system was detected with EnVision under the condition of Ex/Em=535/590 nm.

[3] = system: influenza virus A/Weiss/43 (H1N1); assay: Influenza virus cytopathic effect (CPE) experiment in MDCK cells; format: cell-based; details: unidentified influenza virus, H1N1, 120 h, 5 days incubation, CCK8
[4] = system: dextran sulfate sodium (DSS) induced colitis model; assay: DSS induced colitis model in mice; format: in vivo, C57BL/6 mice
Protocol: • 6.1 Purpose of the study: In order to verify the effect of the test sample on dextran sulfate sodium (DSS) induced colitis model in […] mice. • 6.2 Experimental design for inducing colitis: The mice in the vehicle and administration groups were administered on Day 0 for 1 h, and the mice freely drank water containing 3% DSS until Day 7, after Day 8, the mice were euthanized and their colon was taken for analysis. C57BL/6 mice, 8 weeks of age, 18-20 g, female. Administration was started on Day 0 to Day 7 for both the vehicle and administration groups. • 6.3 Drinking water containing DSS: The appropriate amount of DSS powder was dissolved in autoclaved drinking water and configured as a 3% DSS solution. • 6.4 Administration: Animals of group 1 were given the vehicle, animals of group 2 were given compound 5, and animals of group 3 were given normal drinking water and the vehicle, the vehicle was 5% DMSO/10% Solutol solution/0.2% Tween80/84.8% aqueous solution, with twice a day. 6.5 Measurement 6.5.1 Weight
Recording frequency was once a day, Days 0 to 8.
The recording frequency is once a day, Days 0 to 8, and is rated at 4 grades according to the following criteria: • Weight change (0, ≤1%; 1, 1-5%; 2, 6-10%; 3, 11-20%; 4, >20%). • Hematochezia (0, negative; 1, weakly positive for occult blood; 2, positive for occult blood; 3, significant hematochezia; 4, massive hematochezia) • Stool score (0, normal; 1, soft stool; 2, flaccid stool; 3, loose stool; 4, diarrhea)
The daily disease index is obtained by adding the scores of the above three parts.
On Day 8, all animals received an overdose of CO2 and were executed by cervical dislocation. The abdominal cavity was cut open and the colon of the mice was taken, the tissue around the colon was removed, and the longitudinal length from the ileocecum to the anus was measured and the whole was photographed. The colon was dissected, the intestinal contents were cleaned, weighed separately, and the stool consistency was recorded.
The colonic tissue was divided into two longitudinally and one was fixed in 10% neutral paraformaldehyde in the form of “Swiss” rolls.
The experimental data were expressed as mean±standard error (S.E.M.). Data were adopted by GraphPad Prism and analyzed by ANOVA statistical method. P<0.05 was considered as statistical difference.

[5] = female, Balb/c, mouse, plasma, IV 0.2 mg/kg
[6] = female, Balb/c, mouse, plasma, PO 1 mg/kg
[7] = 5 mpk/BID, compared with the modeling group, p<0.0001

Sequence of DHODH enzyme (Q02127 whole entry): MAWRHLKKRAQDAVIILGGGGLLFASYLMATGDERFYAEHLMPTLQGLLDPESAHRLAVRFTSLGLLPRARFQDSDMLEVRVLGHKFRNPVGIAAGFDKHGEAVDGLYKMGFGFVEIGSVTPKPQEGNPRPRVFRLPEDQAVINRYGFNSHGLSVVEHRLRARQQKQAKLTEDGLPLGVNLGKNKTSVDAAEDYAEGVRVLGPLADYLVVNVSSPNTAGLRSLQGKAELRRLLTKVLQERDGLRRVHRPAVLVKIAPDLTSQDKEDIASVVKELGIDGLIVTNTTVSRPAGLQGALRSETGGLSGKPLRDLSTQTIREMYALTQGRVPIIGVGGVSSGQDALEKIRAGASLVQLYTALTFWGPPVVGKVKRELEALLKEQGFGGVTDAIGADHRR

For `CCn1c(CO)nn(-c2cc(O[C@@H](C)C(F)(F)F)c(/C(F)=C/c3ncccc3Cl)cc2F)c1=O` [Compound 5], the Tlast ([1]; IV 0.2 mg/kg) was 24.0 h, the F ([1]; PO 1 mg/kg) was 95.8% and the Tlast ([1]; PO 1 mg/kg) was 24.0 h. It also gave an AUC(0-inf) [1, 5] of 1.51 µM·h, an AUC(0-t) [1, 5] of 1.43 µM·h and a clearance [1, 5] of 4.38 mL/min/kg. For the same compound, the half-life [1, 5] was 5.83 h, the MRT last [1, 5] was 6.24 h and the Vd ([1]; female, Balb/c, mouse, plasma, IV 0.2 mg/kg, read-out: VdSS) was 2.02 L/kg. For the same compound, the AUC(0-inf) [1, 6] was 7.21 µM·h, the AUC(0-t) [1, 6] was 6.87 µM·h and the Tmax [1, 6] was 2 h. The half-life [1, 6] was 5.36 h, the MRT last [1, 6] was 6.99 h and the C0 ([1]; female, Balb/c, mouse, IV 0.2 mg/kg, plasma) was 354 nM. The Cmax ([1]; female, Balb/c, mouse, PO 1 mg/kg, plasma) was 794 nM, the IC50 [2] was 3.5 nM and the EC50 [3] was 70 nM. The “Level of inflammatory factor TNF-α in the colonic mucosa” value ([4]; 5 mg/kg BID, Day 8, p<0.05 compared with the modeling group) was “effectively reduces”, the “Colon length (colonic shortening) at the experimental endpoint” value [4, 7] was “significantly improves” and the “Colonic density at the experimental endpoint” value [4, 7] was “significantly improves the inflammation-induced increase of colonic density”. For the same compound, the “DAI (Disease Activity Index) score” value ([4]; compared to the modeling group, administration for 6 days, Day 8 p<0.0001) was “significantly improved” and the Animal weight change ([4]; compared with the modeling group, p<0.01 on Day 8, twice a day) was “significantly slow down the weight loss of mice”.
